Measurements from ChEMBL document CHEMBL3525933 (Drug Metab Dispos, 2012).

How the values were obtained:
Assay type in all cases: ADME, organism-based
[1] = species on record: Rattus norvegicus; assay: Drug retention time in Wistar rat by HPLC-DAD analysis
[2] = Drug excretion in conventional Wistar rat urine treated with mangiferin at 400 mg/kg, po administered as single dose by HPLC-DAD analysis; parameters: dose 400 mg/kg, route oral; conditions: in vivo
[3] = Drug excretion in conventional Wistar rat feces treated with mangiferin at 400 mg/kg, po administered as single dose by HPLC-DAD analysis; parameters: dose 400 mg/kg, route oral; conditions: in vivo
[4] = Drug excretion in streptozotocin-induced diabetic Wistar rat feces treated with mangiferin at 400 mg/kg, po administered as single dose by HPLC-DAD analysis; parameters: dose 400 mg/kg, route oral; conditions: in vivo
[5] = Drug excretion in streptozotocin-induced diabetic Wistar rat urine treated with mangiferin at 400 mg/kg, po administered as single dose by HPLC-DAD analysis; parameters: dose 400 mg/kg, route oral; conditions: in vivo

| Retention_time [1] [min] | Drug excretion [2] | Drug excretion [3] | Drug excretion [4] | Drug excretion [5] | SMILES |
| --- | --- | --- | --- | --- | --- |
| 36 | metabolite_detected | metabolite_detected | metabolite_detected | metabolite_detected | O=c1c2cc(O)c(O)cc2oc2cc(O)cc(O)c12 |
| 40.4 | – | – | – | metabolite_detected | O=c1c2cc(O)ccc2oc2cccc(O)c12 |
